PubChem BioAssay AID248 (DTP/NCI, 2004)
Values joined by “and” are separate entries in the source; they are usually repeats but may differ in a detail not shown here. Equal entries are not always repeated. Inconclusive results and toxic doses are left out. Cut-off read from the data, not from the text of the source: active = T/C of 150% or more; inactive = T/C below 125%.

Test system: L1210 leukemia ip in BDF1 mice, survival T/C
Test: NCI In Vivo Anticancer Drug Screen. Data for tumor model L1210 Leukemia (intraperitoneal) in B6D2F1 (BDF1) mice
Settings: endpoint: mean survival time, higher = longer survival
In short: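 Antitumor effect is assessed in tumor-bearing animals. Survival in the compound arm is compared with a vehicle-dosed control arm and expressed as their quotient.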

[1] = dose: 100.0 mg/kg/injection, schedule: Q01DX001 (ip), vehicle: Klucel (hydroxypropylcellulose) (HPC)
[2] = dose: 200.0 mg/kg/injection, schedule: Q01DX001 (ip), vehicle: Klucel (hydroxypropylcellulose) (HPC)
[3] = dose: 400.0 mg/kg/injection, schedule: Q01DX001 (ip), vehicle: Klucel (hydroxypropylcellulose) (HPC)
[4] = dose: 100.0 mg/kg/injection, schedule: Q01DX009 (ip), vehicle: Klucel (hydroxypropylcellulose) (HPC)
[5] = dose: 100.0 mg/kg/injection, schedule: Q04DX003 (ip), vehicle: Klucel (hydroxypropylcellulose) (HPC)
[6] = dose: 200.0 mg/kg/injection, schedule: Q01DX009 (ip), vehicle: Klucel (hydroxypropylcellulose) (HPC)
[7] = dose: 200.0 mg/kg/injection, schedule: Q04DX003 (ip), vehicle: Klucel (hydroxypropylcellulose) (HPC)
[8] = dose: 400.0 mg/kg/injection, schedule: Q04DX003 (ip), vehicle: Klucel (hydroxypropylcellulose) (HPC)
[9] = dose: 25.0 mg/kg/injection, schedule: Q01DX001 (ip), vehicle: saline
[10] = dose: 50.0 mg/kg/injection, schedule: Q01DX001 (ip), vehicle: saline
[11] = dose: 100.0 mg/kg/injection, schedule: Q04DX003 (ip), vehicle: saline with Tween-80
[12] = dose: 100.0 mg/kg/injection, schedule: Q04DX003 (ip), vehicle: saline
[13] = dose: 200.0 mg/kg/injection, schedule: Q04DX003 (ip), vehicle: saline with Tween-80
[14] = dose: 200.0 mg/kg/injection, schedule: Q04DX003 (ip), vehicle: saline
[15] = dose: 400.0 mg/kg/injection, schedule: Q04DX003 (ip), vehicle: saline with Tween-80
[16] = dose: 400.0 mg/kg/injection, schedule: Q04DX003 (ip), vehicle: saline
[17] = dose: 100.0 mg/kg/injection, schedule: Q01DX001 (ip), vehicle: saline
[18] = dose: 200.0 mg/kg/injection, schedule: Q01DX001 (ip), vehicle: saline
[19] = dose: 400.0 mg/kg/injection, schedule: Q01DX001 (ip), vehicle: saline
[20] = dose: 400.0 mg/kg/injection, schedule: Q01DX009 (ip), vehicle: Klucel (hydroxypropylcellulose) (HPC)
[21] = dose: 100.0 mg/kg/injection, schedule: Q01DX009 (ip), vehicle: saline with Tween-80
[22] = dose: 200.0 mg/kg/injection, schedule: Q01DX009 (ip), vehicle: saline with Tween-80
[23] = dose: 400.0 mg/kg/injection, schedule: Q01DX009 (ip), vehicle: saline with Tween-80
[24] = dose: 50.0 mg/kg/injection, schedule: Q01DX009 (ip), vehicle: saline with Tween-80

Measured: T/C

C/C(=N/OC(=O)N(C)C)c1cccs1
inactive: dose: 5.0 mg/kg/injection, schedule: Q01DX001 (ip), vehicle: other 103 % of control | dose: 10.0 mg/kg/injection, schedule: Q01DX001 (ip), vehicle: other 94 % of control | dose: 20.0 mg/kg/injection, schedule: Q01DX001 (ip), vehicle: other 97 % of control | dose: 40.0 mg/kg/injection, schedule: Q01DX001 (ip), vehicle: other 92 % of control

CCC1C(=O)OC(=O)c2oc3ccc(Cl)cc3c21 (stereo unspecified)
inactive: [1] 100 % of control | [2] 102 % of control | [3] 94 % of control

O=C1C=CC(=O)N1
inactive: dose: 0.62 mg/kg/injection, schedule: Q01DX009 (ip), vehicle: saline 90 % of control | dose: 1.25 mg/kg/injection, schedule: Q01DX009 (ip), vehicle: saline 93 % of control | dose: 1.25 mg/kg/injection, schedule: Q04DX003 (ip), vehicle: saline 92 % of control | dose: 2.5 mg/kg/injection, schedule: Q01DX009 (ip), vehicle: saline 90 % of control | dose: 2.5 mg/kg/injection, schedule: Q04DX003 (ip), vehicle: saline 96 % of control | dose: 3.74 mg/kg/injection, schedule: Q01DX009 (ip), vehicle: saline with Tween-80 96 % of control | dose: 5.0 mg/kg/injection, schedule: Q01DX001 (ip), vehicle: acetone 95 % of control

Cc1cc(S(=O)(=O)O)cc(N)c1N
inactive: [1] 105 % of control | [2] 98 % of control | [3] 91 % of control

CN(C)C(=O)Nc1ccc2c(c1)OCO2
inactive: dose: 75.0 mg/kg/injection, schedule: Q01DX009 (ip), vehicle: Klucel (hydroxypropylcellulose) (HPC) 107 % of control | [1] 111 % of control | dose: 150.0 mg/kg/injection, schedule: Q01DX009 (ip), vehicle: Klucel (hydroxypropylcellulose) (HPC) 110 % of control | [2] 104 % of control | dose: 300.0 mg/kg/injection, schedule: Q01DX009 (ip), vehicle: Klucel (hydroxypropylcellulose) (HPC) 102 % of control

CC1CNC(=S)S1 (stereo unspecified)
inactive: [4] 105 % of control | [5] 107 % of control | [6] 100 % of control | [7] 102 % of control | [8] 102 % of control

CC(CCl)OP(=O)(Cc1ccccc1)OC(C)CCl (stereo unspecified)
inactive: dose: 100.0 mg/kg/injection, schedule: Q04DX002 (ip), vehicle: saline with Tween-80 91 % of control | dose: 200.0 mg/kg/injection, schedule: Q04DX002 (ip), vehicle: saline with Tween-80 98 % of control | dose: 400.0 mg/kg/injection, schedule: Q04DX002 (ip), vehicle: saline with Tween-80 98 % of control

C1CCC(C2CCC(N3CCCCC3)CC2)CC1 (stereo unspecified)
inactive: dose: 12.5 mg/kg/injection, schedule: Q01DX001 (ip), vehicle: saline 106 % of control | [9] 101 % of control | [10] 101 % of control

CC1(CCN2CCC3(CC2)C(=O)NCN3c2ccccc2)Oc2ccccc2O1
inactive: [5] 104 % of control | [7] 111 % of control | [8] 93 % of control

O=C(NCc1ccccc1)C1C2CC3OC(=O)C1C3C2 (stereo unspecified)
inactive: [11] 98 % of control | [12] 123 % of control | [13] 95 % of control | [14] 104 % of control | [15] 95 % of control | [16] 104 % of control

COc1cc(CN)cc(OC)c1OC
inactive: [10] 100 % of control | [17] 96 % of control | [18] 96 % of control | [19] 100 % of control

O=C(NCCCl)NC1CCC(O)CC1 (stereo unspecified)
inactive: [12] 107 % of control | [14] 100 % of control | [16] 100 % of control

N#CCc1ccc2c(c1)Sc1ccccc1O2
inactive: [4] 94 % of control | [6] 100 % of control | [20] 93 % of control

CC(C)=C(c1ccc(C(C)(C)C)cc1)c1ccc(C(C)(C)C)cc1
inactive: [21] 94 % of control | [22] 95 % of control

Cc1cccc(NC(=O)CSc2cc(Cl)c(Cl)cc2Cl)c1
inactive: dose: 100.0 mg/kg/injection, schedule: Q01DX001 (ip), vehicle: saline with Tween-80 93 % of control | dose: 200.0 mg/kg/injection, schedule: Q01DX001 (ip), vehicle: saline with Tween-80 90 % of control | dose: 400.0 mg/kg/injection, schedule: Q01DX001 (ip), vehicle: saline with Tween-80 87 % of control

N#CCCC(C#N)(CCC#N)c1ccc([N+](=O)[O-])cc1
inactive: [21] 102 % of control | [11] 98 % of control | [22] 107 % of control | [13] 98 % of control | [23] 98 % of control | [15] 98 % of control

CCOC(=O)c1cc(Cl)cc(Cl)c1N=NN(C)C
inactive: [24] 102 % of control | [22] 102 % of control

Cc1ccc2c(c1)Nc1ccccc1C(=O)N2
inactive: [4] 98 % of control | [6] 93 % of control | [20] 91 % of control

CC(NC(=O)NCCCl)c1ccco1 (stereo unspecified)
inactive: dose: 6.25 mg/kg/injection, schedule: Q01DX009 (ip), vehicle: Klucel (hydroxypropylcellulose) (HPC) 104 % of control | dose: 12.5 mg/kg/injection, schedule: Q01DX009 (ip), vehicle: Klucel (hydroxypropylcellulose) (HPC) 98 % of control | dose: 25.0 mg/kg/injection, schedule: Q01DX009 (ip), vehicle: Klucel (hydroxypropylcellulose) (HPC) 109 % of control | dose: 50.0 mg/kg/injection, schedule: Q01DX009 (ip), vehicle: Klucel (hydroxypropylcellulose) (HPC) 114 % of control | [4] 106 % of control | [5] 101 % of control | [7] 93 % of control

CN(C)C=C(S(C)(=O)=O)S(C)(=O)=O
inactive: dose: 75.0 mg/kg/injection, schedule: Q04DX003 (ip), vehicle: saline 97 % of control | dose: 100.0 mg/kg/injection, schedule: Q01DX009 (ip), vehicle: saline 101 % of control | dose: 150.0 mg/kg/injection, schedule: Q04DX003 (ip), vehicle: saline 97 % of control | dose: 200.0 mg/kg/injection, schedule: Q01DX009 (ip), vehicle: saline 109 % of control | dose: 300.0 mg/kg/injection, schedule: Q04DX003 (ip), vehicle: saline 101 % of control | dose: 400.0 mg/kg/injection, schedule: Q01DX009 (ip), vehicle: saline 98 % of control

COc1cc(OC)c2c(c1Cl)OC1(C(=O)C=CCC1C)C2=O (stereo unspecified)
inactive: [11] 98 % of control | [13] 104 % of control | [15] 96 % of control

Cc1ncc2c(=O)n(-c3ccc([N+](=O)[O-])cc3)[nH]c2n1
inactive: [11] 108 % of control | [13] 100 % of control | [15] 108 % of control

O=[N+]([O-])c1ccc(Oc2cc(Cl)c(Cl)cc2Cl)nc1
inactive: [21] 101 % of control | [11] 104 % of control | [22] 103 % of control | [13] 102 % of control | [23] 100 % of control | [15] 106 % of control

CC(=O)O/N=C(\C)C12CCCCC1C(O)CCC2 (stereo unspecified)
inactive: [17] 91 % of control | [12] 94 % of control | [18] 91 % of control | [14] 101 % of control | [19] 91 % of control | [16] 104 % of control

COc1ccc2ncc(CO)cc2c1
inactive: [12] 96 % of control | [14] 98 % of control | [16] 112 % of control

O=C1OC(c2ccccc2)(c2ccccc2)c2sccc21
inactive: [24] 91 % of control | [21] 102 % of control | [22] 94 % of control

CC1(C)CC(=O)c2c(cc3oc(=O)ccc3c2O)O1
inactive: [5] 102 % of control | [7] 105 % of control | [8] 98 % of control

O=C(NOS(=O)(=O)O)c1ccccc1
inactive: [9] 94 % of control | dose: 25.0 mg/kg/injection, schedule: Q01DX009 (ip), vehicle: saline 110 % of control | dose: 25.0 mg/kg/injection, schedule: Q04DX003 (ip), vehicle: saline 98 % of control | [10] 99 % of control | dose: 50.0 mg/kg/injection, schedule: Q01DX009 (ip), vehicle: saline 97 % of control | dose: 50.0 mg/kg/injection, schedule: Q04DX003 (ip), vehicle: saline 100 % of control | [17] 100 % of control and 104 % of control | [12] 100 % of control
